Measurements published in patent US9789119B2, “Cognitive function” (priority 2010, dated 2017).
Entries after “also recorded” stand apart in the source; their conditions may differ.

How the values were obtained:
Ts65Dn mice = conditions: short-term administration of low doses; cited from earlier work
[1] = test system: Ts65Dn mouse model of Down syndrome; assay: Novel Object Recognition (NOR) task in Ts65Dn mice; format: in vivo; conditions: 0.3 mg/kg IP daily for two weeks, NOR two weeks after treatment end
Method: In this case, the effect of the noncompetitive GABAA receptor antagonist pentylenetetrazole (PTZ) on cognitive function in the Ts65Dn mouse model of Down syndrome was assessed with the Novel Object Recognition (NOR) task.
(§1) The NOR task is based on the established finding that mice preferentially explore novel objects relative to remembered objects. The test consists of a training session and a testing session. During the training session, a mouse is allowed 15 minutes to explore freely a training chamber that contains two objects. The amount of time the mouse uses to explore each object is quantified using video monitoring. The mouse is removed from the training session for 24 hours, during which time one of the objects in the training chamber is replaced with a novel object. The mouse is returned to the training chamber for the testing session, during which video monitoring is again used to quantify the amount of time the mouse uses to explore each object.
Ts65Dn mice and wild-type (2N) controls were maintained on a 12:12 light:dark (LD) cycle. At three months of age, their NOR task performance was determined. The animals then received daily intraperitoneal (IP) injections of pentylenetetrazole (PTZ; 0.3 mg/kg) for two weeks (“treatment”). […] Two weeks after treatment end, the NOR task performance of all mice was again determined. […]

wild-type (2N) mice = assay: Novel Object Recognition (NOR) task in wild-type (2N) mice; format: in vivo, mouse; conditions: 0.3 mg/kg IP daily for two weeks, light cycle (FIG. 1 panel B)
Method: as §1
Ts65Dn mice and wild-type (2N) controls were maintained on a 12:12 light:dark (LD) cycle. At three months of age, their NOR task performance was determined. The animals then received daily intraperitoneal (IP) injections of pentylenetetrazole (PTZ; 0.3 mg/kg) for two weeks (“treatment”). A control group received vehicle control (saline; NaCl) only for the same duration. The IP injections occurred near the middle of the light phase or during the dark phase of a LD cycle. Two weeks after treatment end, the NOR task performance of all mice was again determined. All NOR tasks were performed during the light phase of a LD cycle. […]

Compound | cognitive function (Ts65Dn mice) | hippocampal LTP induction (Ts65Dn mice) | performance in the Novel Object Recognition (NOR) task ([1]; dark phase (wakefulness)) | performance in the Novel Object Recognition (NOR) task ([1]; middle of light phase (sleep)) | time spent exploring objects in NOR task (wild-type (2N) mice)
CC(C)(C)[C@]1(O)CC2OC(=O)CC23C(=O)OC2OC(=O)[C@H](O)C231 (stereo partly drawn) [BB, bilobalide] | improve in a long-lasting manner | improve in a long-lasting manner |  |  | 
C1CCc2nnnn2CC1 [PTZ, pentylenetetrazole] | improve in a long-lasting manner | improve in a long-lasting manner | some improvement relative to the saline-injected controls; also recorded: less effective in improving performance in the NOR task; also recorded: less effective in improving cognitive function | spent a significantly larger proportion of time of the testing session exploring the novel object; also recorded: normalizes performance in the Novel Object Recognition (NOR) task; also recorded: can improve cognition | more time on the new object during the testing session
picrotoxin [PTX] | improve in a long-lasting manner | improve in a long-lasting manner |  |  | 
